# Source: US12215173B2, “Kappa opioid receptor peptide amide ligands” (priority 2019, dated 2025)
# Read-outs that look alike come from different tables or passages of the source. Square brackets hold non-standard residues; d marks the D form. Peptide text beside a SMILES is read from it. * marks the point of attachment. Piperidin1yl(4-NH2,4-CO2Me) = COC(=O)C1(N)CCN(*)CC1; dAla(cPr) = N[C@H](CC1CC1)C(=O)O
# Assays:
# [1] = molecular target: recombinant human kappa (KOR) opioid receptor (Homo sapiens (Human), UniProt P41145); test: biochemical; assay type: binding; conditions: HEK293 cell membranes, 0.5 nM [3H]diprenorphine
# [2] = molecular target: recombinant human mu (MOR) opioid receptor (Homo sapiens (Human), UniProt P35372); test: Opioid receptor radioligand binding assay, MOR
# [3] = molecular target: recombinant human delta (DOR) opioid receptor (Homo sapiens (Human), UniProt P41143); test: Opioid receptor radioligand binding assay, DOR
# recombinant human delta (DOR) opioid receptor, sequence (P41143 whole entry, looked up): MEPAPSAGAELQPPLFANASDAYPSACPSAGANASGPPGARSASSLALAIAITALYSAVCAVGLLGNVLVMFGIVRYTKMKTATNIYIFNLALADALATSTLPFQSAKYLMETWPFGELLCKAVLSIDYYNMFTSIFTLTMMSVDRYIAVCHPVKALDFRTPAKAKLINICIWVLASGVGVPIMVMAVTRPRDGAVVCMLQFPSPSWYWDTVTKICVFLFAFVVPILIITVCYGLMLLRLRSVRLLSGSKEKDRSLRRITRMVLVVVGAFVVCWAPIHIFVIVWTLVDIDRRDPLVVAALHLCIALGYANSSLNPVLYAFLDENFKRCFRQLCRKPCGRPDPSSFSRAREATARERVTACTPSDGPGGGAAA
# [4] = molecular target: Opioid Kappa Receptor (recombinant human, HEK293 cells) (Homo sapiens (Human), UniProt P41145); test: cell-based; conditions: read-out: EC50
# [5] = HEK293 cell membranes, 0.5 nM [3H]DAMGO, read-out: MOR, IC50
# [6] = HEK293 cell membranes, 0.5 nM [3H]DADLE, read-out: DOR, IC50
smiles,measurement,setting,value
COCCOCCNC(=O)[C@@H](CCCCN)NC(=O)[C@@H](CC(C)C)NC(=O)[C@@H](Cc1ccccc1)NC(=O)[C@H](N)Cc1ccccc1 [Compound 13-4],IC50,[1],2.8 nM
same,IC50,[2]; [5],> 10000 nM
same,IC50,[3]; [6],> 10000 nM
same,EC50,[4],13.5 nM
CNC(=O)N1CCN(C(=O)[C@@H](CCCCN)NC(=O)[C@@H](CC(C)C)NC(=O)[C@@H](Cc2ccccc2)NC(=O)[C@H](N)Cc2ccccc2)CC1 [Compound 13-58],IC50,[1],0.29 nM
same,IC50,[2]; [5],> 10000 nM
same,IC50,[3]; [6],> 10000 nM
same,EC50,[4],10.8 nM
CC(C)C[C@@H](NC(=O)[C@@H](Cc1ccccc1)NC(=O)[C@H](N)Cc1ccccc1)C(=O)N[C@H](CCCCN)C(=O)N1CCC(NC(=O)C(N)C(=O)O)CC1 (stereo partly shown) [Compound 13-40],IC50,[1],0.3 nM
same,IC50,[2]; [5],6390 nM
same,IC50,[3]; [6],> 10000 nM
same,EC50,[4],7.48 nM
CC(C)C[C@@H](NC(=O)[C@@H](Cc1ccccc1)NC(=O)[C@H](N)Cc1ccccc1)C(=O)N[C@H](CCCCN)C(=O)NC1CCN(C(=O)C(N)=O)CC1 [Compound 13-34],IC50,[1],3.33 nM
same,IC50,[2]; [5],2980 nM
same,IC50,[3]; [6],> 10000 nM
same,EC50,[4],20.2 nM
CC(C)C[C@@H](NC(=O)[C@@H](Cc1ccccc1)NC(=O)[C@H](N)Cc1ccccc1)C(=O)N[C@H](CCCCN)C(=O)N1CCC(NC(=O)C(=O)O)CC1 [Compound 13-30],IC50,[1],0.15 nM
same,IC50,[2]; [5],> 10000 nM
same,IC50,[3]; [6],> 10000 nM
same,EC50,[4],4.77 nM
CC(C)C[C@@H](NC(=O)[C@@H](Cc1ccccc1)NC(=O)[C@H](N)Cc1ccccc1)C(=O)N[C@H](CCCCN)C(=O)NC1CCN(C(=O)C(=O)N(C)C)CC1 [Compound 13-17],IC50,[1],23.4 nM
same,IC50,[2]; [5],> 10000 nM
same,IC50,[3]; [6],> 10000 nM
same,EC50,[4],22 nM
"COC(=O)C1(N)CCN(C(=O)[C@@H](CCCCN)NC(=O)[C@@H](CC2CC2)NC(=O)[C@@H](Cc2ccccc2)NC(=O)[C@H](N)Cc2ccccc2)CC1 [Compound 112] (H-[dF][dF][dAla(cPr)][dK]-{Piperidin1yl(4-NH2,4-CO2Me)})",IC50,[1],1 nM
same,IC50,[2]; [5],15.2 nM
same,IC50,[3]; [6],> 10000 nM
same,EC50,[4],5.95 nM
COCCOCCOCCNC(=O)[C@@H](CCCCN)NC(=O)[C@@H](CC(C)C)NC(=O)[C@@H](Cc1ccccc1)NC(=O)[C@H](N)Cc1ccccc1 [Compound 13-5],IC50,[1],5.92 nM
same,IC50,[2]; [5],> 10000 nM
same,IC50,[3]; [6],> 10000 nM
same,EC50,[4],15.8 nM
COC(=O)C(=O)NC1CCN(C(=O)[C@@H](CCCCN)NC(=O)[C@@H](CC(C)C)NC(=O)[C@@H](Cc2ccccc2)NC(=O)[C@H](N)Cc2ccccc2)CC1 [Compound 13-29],IC50,[1],0.29 nM
same,IC50,[2]; [5],6.86 nM
same,IC50,[3]; [6],> 10000 nM
same,EC50,[4],15.5 nM
COCCOC(=O)C1(N)CCN(C(=O)[C@@H](CCCCN)NC(=O)[C@@H](CC(C)C)NC(=O)[C@@H](Cc2ccccc2)NC(=O)[C@H](N)Cc2ccccc2)C1 (stereo partly shown) [Compound 45],IC50,[1],0.33 nM
same,IC50,[2]; [5],7370 nM
same,IC50,[3]; [6],> 10000 nM
same,EC50,[4],30.2 nM
CC(C)C[C@@H](NC(=O)[C@@H](Cc1ccccc1)NC(=O)[C@H](N)Cc1ccccc1)C(=O)N[C@H](CCCCN)C(=O)N1CCC(NC(=O)CC[C@H](N)C(N)=O)CC1 [Compound 13-41],IC50,[1],0.21 nM
same,IC50,[2]; [5],8220 nM
same,IC50,[3]; [6],> 10000 nM
same,EC50,[4],9.12 nM
CC(C)C[C@@H](NC(=O)[C@@H](Cc1ccccc1)NC(=O)[C@H](N)Cc1ccccc1)C(=O)N[C@H](CCCCN)C(=O)NCCOCCO [Compound 13-51],IC50,[1],0.27 nM
same,IC50,[2]; [5],349 nM
same,IC50,[3]; [6],> 10000 nM
same,EC50,[4],5.15 nM
CC(C)C[C@@H](NC(=O)[C@@H](Cc1ccccc1)NC(=O)[C@H](N)Cc1ccccc1)C(=O)N[C@H](CCCCN)C(=O)NCc1cc[nH]c(=O)c1 [Compound 13-9],IC50,[1],0.41 nM
same,IC50,[2]; [5],> 10000 nM
same,IC50,[3]; [6],> 10000 nM
same,EC50,[4],18.1 nM
COC(=O)/C=C/C(=O)N1CCN(C(=O)[C@@H](CCCCN)NC(=O)[C@@H](CC(C)C)NC(=O)[C@@H](Cc2ccccc2)NC(=O)[C@H](N)Cc2ccccc2)CC1 [Compound 13-24],IC50,[1],0.52 nM
same,IC50,[2]; [5],7990 nM
same,IC50,[3]; [6],> 10000 nM
same,EC50,[4],31.5 nM
CC(=O)N[C@@H](CCC(N)=O)C(=O)NC1CCN(C(=O)[C@@H](CCCCN)NC(=O)[C@@H](CC(C)C)NC(=O)[C@@H](Cc2ccccc2)NC(=O)[C@H](N)Cc2ccccc2)CC1 [Compound 13-56],IC50,[1],0.35 nM
same,IC50,[2],> 10000 nM
same,IC50,[3],> 10000 nM
same,EC50,[4],16.7 nM
"COC(=O)C1(N)CCN(C(=O)CNC(=O)[C@@H](CCCCN)NC(=O)[C@@H](CC(C)C)NC(=O)[C@@H](Cc2ccccc2)NC(=O)[C@H](N)Cc2ccccc2)CC1 [Compound 66] (H-[dF][dF][dL][dK]G-{Piperidin1yl(4-NH2,4-CO2Me)})",IC50,[1],20.9 nM
same,IC50,[2],307 nM
same,IC50,[3],> 10000 nM
same,EC50,[4],12.9 nM
CCNC(=O)N1CCN(C(=O)[C@@H](CCCCN)NC(=O)[C@@H](CC(C)C)NC(=O)[C@@H](Cc2ccccc2)NC(=O)[C@H](N)Cc2ccccc2)CC1 [Compound 13-64],IC50,[1],0.47 nM
same,IC50,[2]; [5],> 10000 nM
same,IC50,[3]; [6],> 10000 nM
same,EC50,[4],2.91 nM
COC(=O)/C=C/C(=O)NC1CCN(C(=O)[C@@H](CCCCN)NC(=O)[C@@H](CC(C)C)NC(=O)[C@@H](Cc2ccccc2)NC(=O)[C@H](N)Cc2ccccc2)CC1 [Compound 13-19],IC50,[1],0.33 nM
same,IC50,[2]; [5],> 727 nM
same,IC50,[3]; [6],> 10000 nM
same,EC50,[4],75.8 nM
COC(=O)[C@@H](N)CNC(=O)[C@@H](CCCCN)NC(=O)[C@@H](CC(C)C)NC(=O)[C@@H](Cc1ccccc1)NC(=O)[C@H](N)Cc1ccccc1 [Compound 13-12],IC50,[1],6.6 nM
same,IC50,[2]; [5],> 10000 nM
same,IC50,[3]; [6],> 10000 nM
same,EC50,[4],7.07 nM
CC(C)C[C@@H](NC(=O)[C@@H](Cc1ccccc1)NC(=O)[C@H](N)Cc1ccccc1)C(=O)N[C@H](CCCCN)C(=O)NCc1ccncc1 [Compound 13-53],IC50,[1],2.01 nM
same,IC50,[2],8750 nM
same,IC50,[3],> 10000 nM
same,EC50,[4],12.6 nM
CC(C)C[C@@H](NC(=O)[C@@H](Cc1ccccc1)NC(=O)[C@H](N)Cc1ccccc1)C(=O)N[C@H](CCCCN)C(=O)N1CCC(NC(=O)C[C@H](N)C(N)=O)CC1 [Compound 13-38],IC50,[1],0.3 nM
same,IC50,[2],> 10000 nM
same,IC50,[3],> 10000 nM
same,EC50,[4],6.08 nM
CC(C)C[C@@H](NC(=O)[C@@H](Cc1ccccc1)NC(=O)[C@H](N)Cc1ccccc1)C(=O)N[C@H](CCCCN)C(=O)N1CCC(NC(=O)CNC(N)=O)CC1 [Compound 13-55],IC50,[1],0.35 nM
same,IC50,[2],> 10000 nM
same,IC50,[3],> 10000 nM
same,EC50,[4],20.4 nM
CC(C)C[C@@H](NC(=O)[C@@H](Cc1ccccc1)NC(=O)[C@H](N)Cc1ccccc1)C(=O)N[C@H](CCCCN)C(=O)NCCOCCOCCO [Compound 13-52],IC50,[1],1.02 nM
same,IC50,[2]; [5],> 10000 nM
same,IC50,[3]; [6],> 10000 nM
same,EC50,[4],12.1 nM
CCOC(=O)C(=O)NC1CCN(C(=O)[C@@H](CCCCN)NC(=O)[C@@H](CC(C)C)NC(=O)[C@@H](Cc2ccccc2)NC(=O)[C@H](N)Cc2ccccc2)CC1 [Compound 13-31],IC50,[1],0.28 nM
same,IC50,[2]; [5],172 nM
same,IC50,[3]; [6],> 10000 nM
same,EC50,[4],17.9 nM
CNC(=O)NC1CCN(C(=O)[C@@H](CCCCN)NC(=O)[C@@H](CC(C)C)NC(=O)[C@@H](Cc2ccccc2)NC(=O)[C@H](N)Cc2ccccc2)CC1 [Compound 13-60],IC50,[1],0.42 nM
same,IC50,[2],> 10000 nM
same,IC50,[3],> 10000 nM
same,EC50,[4],14.3 nM
